Results published in PMC5007854, “β-Nitrostyrenes as Potential Anti-leishmanial Agents” (Frontiers in Microbiology, 2016).
Values after ≈ are worked out from the molar mass of the structure shown.

How the values were obtained:
[1] = test system: Aspergillus fumigatus ATCC 16424; experiment: Broth microdilution antifungal susceptibility (MIC/MFC); assay type: cell-based; settings: Aspergillus fumigatus; for MIC: ATCC16424, 48 h, broth microdilution, 35°C, 48 h, read-out: MIC, Af ATCC 16424; for MFC: ATCC16424, ≥99.9% reduction of original inoculum, read-out: MFC, Af ATCC 16424
Text: (§1) One reference each of the following species was used for their in vitro susceptibility to β-nitrostyrene in this study: Staphylococcus aureus ATCC 29213, Staphylococcus epidermidis ATCC 14990, Escherichia coli ATCC 25922, Pseudomonas aeruginosa ATCC 27853, Candida albicans ATCC 90028, Candida glabrata ATCC 90030, Aspergillus fumigatus ATCC 16424 and Aspergillus niger ATCC 16404. These strains were procured from the American Type Culture Collection (ATCC, Manassas, VA, USA).
(§2) The antibacterial and antifungal activities of the β-nitrostyrenes were performed by broth microdilution methods as per the guidelines of Clinical and Laboratory Standard Institute (Wayne, [1998], [2008a],[b],[c]) by using Mueller-Hinton broth (MHB; Becton-Dickinson, Cockeysville, MD, USA) supplemented with calcium (25 mg/L) and magnesium (12.5 mg/L) for bacterial strains while as RPMI 1640 medium with L-glutamine and without sodium bicarbonate, buffered to pH 7.0 with 0.165 M 3-(N-morpholino) propanesulfonic acid (MOPS; both from Sigma) was used for fungal strains. Stock solutions were prepared in 100% dimethyl sulfoxide (DMSO; Sigma; distilled water was used for ciprofloxacin), with a final DMSO concentration of 1% (vol. per vol.) and two-fold serial dilutions were prepared in media in amounts of 100 μL per well in 96-well U-bottom microtiter plates (Tarsons, Kolkata, India) to yield twice the final concentration required for testing, which ranged from 64 to 0.12 μg/mL for β-nitrostyrenes and 16 to 0.03 μg/mL for ciprofloxacin as well as amphotericin B. Stock inoculum suspensions of the bacteria, Candida species and Aspergillus species were prepared in sterile normal saline (0.85%) containing 0.05% polysorbate 20 (NST) from overnight (3 to 5-day old for Aspergillus species) strains grown on Trypticase soy agar (TSA; Becton-Dickinson) and potato dextrose agar (Difco Laboratories, Detroit, MI, USA) respectively at 35°C. Inocula were verified for each assay by plating onto agar plates for colony enumeration. These suspensions were further diluted in the respective test medium and a 100 μl volume of this diluted inoculum was added to each well of the plate, resulting in a final inoculum concentration of approximately 5 × 10^5 CFU/mL for bacter1ia, (Wayne, [2008a]) approximately 2.5 × 10^4 CFU/ml for Candida species (Pfaller et al., [2004]) while as 0.4 × 10^4 to 5 × 10^4 CFU/mL for Aspergillus species (Wayne, [2008c]). Untreated growth control, vehicle control (DMSO) and sterility control wells were included for each isolate tested. Ciprofloxacin and amphotericin B served as the standard drug controls for bacterial and fungal strains, respectively. The microtiter plates were incubated at 35°C for 24 h for bacterial strains and 48 h for fungal strains. The plates were read visually and the minimum inhibitory concentration (MIC) was defined as the lowest concentration of test sample that prevented visible growth with respect to the growth control.
(§3) The minimum bactericidal concentration (MBC) and minimum fungicidal concentration (MFC) were determined by plating 100 μl volumes on agar plates from the wells showing no visible growth (clear MIC well). The plates were incubated as described above in MIC measurements. […] All experiments were conducted twice in duplicates on separate occasions with freshly prepared inoculums and stock solutions.

[2] = test system: Candida albicans ATCC 90028; experiment: as above; assay type: cell-based; settings: Candida albicans; for MIC: ATCC90028, 48 h, broth microdilution, 35°C, 48 h, read-out: MIC, Ca ATCC 90028; for MFC: ATCC90028, ≥99.9% reduction of original inoculum, read-out: MFC, Ca ATCC 90028
Text: as §1, §2, §3

[3] = test system: Candida glabrata ATCC 90030; experiment: as above; assay type: cell-based; settings: Nakaseomyces glabratus; for MIC: ATCC90030, 48 h, broth microdilution, 35°C, 48 h, read-out: MIC, Cg ATCC 90030; for MFC: ATCC90030, ≥99.9% reduction of original inoculum, read-out: MFC, Cg ATCC 90030
Text: as §1, §2, §3

[4] = test system: Aspergillus niger ATCC 16404; experiment: as above; assay type: cell-based; settings: Aspergillus niger; for MIC: ATCC16404, 48 h, broth microdilution, 35°C, 48 h, read-out: MIC, An ATCC 16404; for MFC: ATCC16404, ≥99.9% reduction of original inoculum, read-out: MFC, An ATCC 16404
Text: as §1, §2, §3

[5] = test system: Pseudomonas aeruginosa ATCC 27853; experiment: Broth microdilution antibacterial susceptibility (MIC/MBC); assay type: cell-based; settings: Pseudomonas aeruginosa; for MIC: ATCC27853, 24 h, broth microdilution, 35°C, 24 h, read-out: MIC, Pa ATCC 27853; for MBC: ATCC27853, ≥99.9% reduction of original inoculum, read-out: MBC, Pa ATCC 27853
Text: as §1, §2, §3

[6] = test system: Staphylococcus epidermidis ATCC 14990; experiment: as above; assay type: cell-based; settings: Staphylococcus epidermidis; for MIC: ATCC14990, 24 h, broth microdilution, 35°C, 24 h, read-out: MIC, Se ATCC 14990; for MBC: ATCC14990, ≥99.9% reduction of original inoculum, read-out: MBC, Se ATCC 14990
Text: as §1, §2, §3

[7] = test system: Staphylococcus aureus ATCC 29213; experiment: as above; assay type: cell-based; settings: Staphylococcus aureus; for MIC: ATCC29213, 24 h, broth microdilution, 35°C, 24 h, read-out: MIC, Sa ATCC 29213; for MBC: ATCC29213, ≥99.9% reduction of original inoculum, read-out: MBC, Sa ATCC 29213
Text: as §1, §2, §3

[8] = test system: Escherichia coli ATCC 25922; experiment: as above; assay type: cell-based; settings: Escherichia coli; for MIC: ATCC25922, 24 h, broth microdilution, 35°C, 24 h, read-out: MIC, Ec ATCC 25922; for MBC: ATCC25922, ≥99.9% reduction of original inoculum, read-out: MBC, Ec ATCC 25922
Text: as §1, §2, §3

[9] = test system: L. donovani promastigotes; experiment: Anti-leishmanial screening at 100 μM, parasite viability by microscopy; assay type: cell-based, Leishmania donovani; settings: L. donovani promastigotes
Experimental: L. donovani parasites (MHOM/IN/83/AG83) were maintained in vivo in BALB/c mice. Promastigotes were routinely cultured at 22°C in medium M199 supplemented with 10% heat inactivated fetal bovine serum (FBS, HiMedia Laboratories, Mumbai, India), penicillin 100 (IU/ml), streptomycin (100 μg/ml). Log phase promastigotes were sub-cultured every 72–96 h, the inoculum being 2 × 10^6 cells/ml (Afrin et al., [2002]).
Nitrostyrine series were screened for their antileishmanial activity against L. donovani promastigotes in vitro. Promastigotes of L. donovani (2 × 10^6 cells/mL) in M199 medium were incubated at 22°C for 72 h with each compound at a concentration of 100 μM. Amphotericin B (AmB) served as reference drug, 0.2% DMSO was used as solvent control. Parasites with media alone were taken as control. Parasite viability was determined microscopically after 72 h (Islamuddin et al., [2014b]).

Structure (SMILES) | MIC [1] [µg/mL] | MFC [1] [µg/mL] | MIC [2] [µg/mL] | MFC [2] [µg/mL] | MIC [3] [µg/mL] | MFC [3] [µg/mL] | MIC [4] [µg/mL] | MFC [4] [µg/mL] | MIC [5] [µg/mL] | MBC [5] [µg/mL] | MIC [6] [µg/mL] | MBC [6] [µg/mL] | MIC [7] [µg/mL] | MBC [7] [µg/mL] | MIC [8] [µg/mL] | MBC [8] [µg/mL] | Anti-leishmanial activity, in words (SAR discussion) [9] | melting point [°C]
COc1ccc(/C=C/[N+](=O)[O-])cc1OC [Compound 22, 1,2-dimethoxy-4-((E)-2-nitrovinyl) benzene] | 32 (≈ 153 µM) | 64 (≈ 306 µM) | 64 (≈ 306 µM) | 64 (≈ 306 µM) | 16 (≈ 76.5 µM) | 16 (≈ 76.5 µM) | 32 (≈ 153 µM) | 32 (≈ 153 µM) | > 64 | > 64 | 64 (≈ 306 µM) | 64 (≈ 306 µM) | > 64 | > 64 | > 64 | > 64 | inactive | 
CC/C(=C\c1c[nH]c2ccccc12)[N+](=O)[O-] [Compound 30, 3-((E)-2-nitrobut-1-enyl)-1H-indole] | 64 (≈ 296 µM) | 64 (≈ 296 µM) | > 64 | > 64 | 32 (≈ 148 µM) | 64 (≈ 296 µM) | 32 (≈ 148 µM) | 32 (≈ 148 µM) | > 64 | > 64 | 8 (≈ 37 µM) | 8 (≈ 37 µM) | 16 (≈ 74 µM) | 16 (≈ 74 µM) | 64 (≈ 296 µM) | > 64 |  | 64 to 66
CC/C(=C(/C)c1cccc(O)c1)[N+](=O)[O-] [Compound 26, 3-((E)-3-nitropent-2-en-2-yl)phenol] | > 64 | > 64 | > 64 | > 64 | > 64 | > 64 | 64 (≈ 309 µM) | > 64 | > 64 | > 64 | 8 (≈ 38.6 µM) | 8 (≈ 38.6 µM) | 8 (≈ 38.6 µM) | 16 (≈ 77.2 µM) | > 64 | > 64 | loss of activity | 138 to 140
CC/C(=C\c1ccc(OC)cc1)[N+](=O)[O-] [Compound 15, 1-methoxy-4-((E)-2-nitrobut-1-enyl) benzene] | 8 (≈ 38.6 µM) | 16 (≈ 77.2 µM) | 32 (≈ 154 µM) | 32 (≈ 154 µM) | 16 (≈ 77.2 µM) | 16 (≈ 77.2 µM) | 8 (≈ 38.6 µM) | 8 (≈ 38.6 µM) | > 64 | > 64 | 16 (≈ 77.2 µM) | 16 (≈ 77.2 µM) | 16 (≈ 77.2 µM) | 32 (≈ 154 µM) | > 64 | > 64 | reduced the activity | 
